Results reported in patent US9150574B2, “Enzyme inhibitor compounds” (Proximagen Limited, priority 2011, dated 2015).
Where a name gives a salt, the structure may show the parent alone. Values belong to the compound of their own block, whether it stands above or below them.

Molecular target: T1, purified recombinantly expressed human SSAO (Homo sapiens, UniProt Q16853)
T1 construct: made in house
T1 sequence (Q16853 29-763 limits assumed): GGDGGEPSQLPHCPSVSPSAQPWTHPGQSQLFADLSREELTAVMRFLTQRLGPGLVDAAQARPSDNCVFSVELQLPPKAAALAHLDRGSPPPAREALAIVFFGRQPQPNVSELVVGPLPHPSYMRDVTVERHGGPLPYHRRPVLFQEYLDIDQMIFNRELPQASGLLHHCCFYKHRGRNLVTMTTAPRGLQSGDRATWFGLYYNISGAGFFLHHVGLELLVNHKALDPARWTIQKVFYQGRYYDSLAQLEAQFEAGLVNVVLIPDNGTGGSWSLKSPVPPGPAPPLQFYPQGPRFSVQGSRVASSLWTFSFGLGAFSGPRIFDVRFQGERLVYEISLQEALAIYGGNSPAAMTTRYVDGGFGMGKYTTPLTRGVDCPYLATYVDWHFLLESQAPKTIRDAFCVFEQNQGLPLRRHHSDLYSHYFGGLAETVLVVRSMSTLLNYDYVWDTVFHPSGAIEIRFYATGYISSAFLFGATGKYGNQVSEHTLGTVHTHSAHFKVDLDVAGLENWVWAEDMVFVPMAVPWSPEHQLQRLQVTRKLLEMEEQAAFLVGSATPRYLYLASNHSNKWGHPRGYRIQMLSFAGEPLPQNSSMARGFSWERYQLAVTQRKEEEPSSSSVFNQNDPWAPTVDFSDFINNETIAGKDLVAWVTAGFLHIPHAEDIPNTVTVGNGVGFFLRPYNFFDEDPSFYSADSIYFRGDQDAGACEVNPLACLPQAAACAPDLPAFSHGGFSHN
Experiment: SSAO enzyme inhibition assay (benzylamine substrate; hydrogen peroxide/HRP-coupled or 14C aldehyde detection)
Assay type: biochemical
Conditions: human recombinant SSAO, RT, benzylamine as substrate; read-out: SSAO inhibitory activity IC50
Experimental: All primary assays were performed at RT. with purified recombinantly expressed human SSAO. Enzyme was prepared essentially as described in Ohman et al. (Protein Expression and Purification 46 (2006) 321 331). In addition, secondary- and selectivity assays were performed using SSAO prepared from various tissues or purified rat recombinant SSAO. The enzyme activity was assayed with benzylamine as substrate by measuring either benzaldehyde production, using ^14C-labeled substrate, or by utilizing the production of hydrogen peroxide in a horseradish peroxidase (HRP) coupled reaction. Briefly, test compounds were dissolved in dimethyl sulfoxide (DMSO) to a concentration of 10 mM. Dose-response measurements were assayed by either creating 1:10 serial dilutions in DMSO to produce a 7 point curve or by making 1:3 serial dilutions in DMSO to produce 11 point curves. The top concentrations were adjusted depending on the potency of the compounds and subsequent dilution in reaction buffer yielded a final DMSO concentration ≦2%.
In a horseradish peroxidase (HRP) coupled reaction, hydrogen peroxide oxidation of 10-acetyl-3,7-dihydroxyphenoxazine produced resorufin, which is a highly fluorescent compound (Zhout and Panchuk-Voloshina. Analytical Biochemistry 253 (1997) 169-174; Amplex® Red Hydrogen Peroxide/peroxidase Assay kit, Invitrogen A22188). Enzyme and compounds in 50 mM sodium phosphate, pH 7.4 were set to pre-incubate in flat-bottomed microtiter plates for approximately 15 minutes before initiating the reaction by addition of a mixture of HRP, benzylamine and Amplex reagent. Benzylamine concentration was fixed at a concentration corresponding to the Michaelis constant, determined using standard procedures. Fluorescence intensity was then measured at several time points during 1-2 hours, exciting at 544 nm and reading the emission at 590 nm. For the human SSAO assay final concentrations of the reagents in the assay wells were: SSAO enzyme 1 μg/ml, benzylamine 100 μM, Amplex reagent 20 μM, HRP 0.1 U/mL and varying concentrations of test compound. The inhibition was measured as % decrease of the signal compared to a control without inhibitor (only diluted DMSO). The background signal from a sample containing no SSAO enzyme was subtracted from all data points. Data was fitted to a four parameter logistic model and IC50 values were calculated using the GraphPad Prism 4 or XLfit 4 programs.
SSAO activity was assayed using 14C-labeled benzylamine and analysed by measuring radioactive benzaldehyde. In a white 96-well optiplate (Packard), 20 μL of diluted test compound was pre-incubated at RT. with 20 μL SSAO enzyme for approximately 15 minutes with continuous agitation. All dilutions were made with PBS. The reaction was initiated by adding 20 μL of the benzylamine substrate solution containing [7-14C] Benzylamine hydrochloride (CFA589, GE Healthcare). The plate was incubated for 1 hour as above after which the reaction was stopped by acidification (10 μL 1 M HCl). Then 90 μL Micro Scint-E solution (Perkin-Elmer) was added to each well and the plate was continuously mixed for 15 minutes. Phase separation occurred instantly and activity was read in a Topcount scintillation counter (Perkin-Elmer). In the final reaction well, the human recombinant SSAO concentration was 10 μg/ml. In order to optimize sensitivity, the substrate concentration was decreased as compared to the HRP coupled assay in order to get a higher fraction of radioactive product. In the human SSAO assay, benzylamine concentration was 40 μM (0.2 μCi/mL). Data was analysed as above.

SMILES: O=C(C1CCN(c2nn(-c3ccc(Cl)cc3)c3cnccc23)CC1)N1CCOCC1 [Example 15, 4-({1-[1-(4-Chlorophenyl)-1H-pyrazolo[3,4-c]pyridin-3-yl]piperidin-4-yl}carbonyl) morpholine]
IC50: 500 to 2500 nM

SMILES: NCCCNC(=O)N1CCC(c2cn(-c3ccc(Cl)cc3)c3cnccc23)CC1 [Example 6, N-(3-Aminopropyl)-4-[1-(4-chlorophenyl)-1H-pyrrolo[2,3-c]pyridin-3-yl]piperidine-1-carboxamide]
IC50: < 100 nM

SMILES: NCCN1CCC(c2cn(-c3ccc(Cl)cc3)c3cnccc23)CC1 [Example 1, 2,2,2-Trifluoroacetic acid; 2-{4-[1-(4-chlorophenyl)-1H-pyrrolo[2,3-c]pyridin-3-yl]piperidin-1-yl}ethan-1-amine]
IC50: < 100 nM

SMILES: O=C(N1CCCNCC1)N1CCC(c2cn(-c3ccc(Cl)cc3)c3cnccc23)CC1 [Example 10, 1-({4-[1-(4-Chlorophenyl)-1H-pyrrolo[2,3-c]pyridin-3-yl]piperidin-1-yl}carbonyl)-1,4-diazepane]
IC50: < 100 nM

SMILES: O=C(N1CCOCC1)N1CCC(c2cn(-c3ccc(Cl)cc3)c3cnccc23)CC1 [Example 9, 4-({4-[1-(4-Chlorophenyl)-1H-pyrrolo[2,3-c]pyridin-3-yl]piperidin-1-yl}carbonyl)morpholine]
IC50: 100 to 500 nM

SMILES: O=C(O)C1CCN(c2nn(-c3ccc(Cl)cc3)c3cnccc23)CC1 [Example 13, 1-[1-(4-Chlorophenyl)-1H-pyrazolo[3,4-c]pyridin-3-yl]piperidine-4-carboxylic acid hydrochloride]
IC50: 100 to 500 nM

SMILES: NCCNC(=O)C1CCN(c2nn(-c3ccc(Cl)cc3)c3cnccc23)CC1 [Example 14, N-(2-Aminoethyl)-1-[1-(4-chlorophenyl)-1H-pyrazolo[3,4-c]pyridin-3-yl]piperidine-4-carboxamide dihydrochloride]
IC50: 100 to 500 nM

SMILES: CCOC(=O)C1CCN(c2nn(-c3ccc(Cl)cc3)c3cnccc23)CC1 [Example 11, Ethyl 1-[1-(4-chlorophenyl)-1H-pyrazolo[3,4-c]pyridin-3-yl]piperidine-4-carboxylate]
IC50: 500 to 2500 nM

SMILES: CCOC(=O)C1CCN(c2nn(-c3ccc(C)cc3)c3cnccc23)CC1 [Example 12, Ethyl 1-[1-(4-methylphenyl)-1H-pyrazolo[3,4-c]pyridin-3-yl]piperidine-4-carboxylate]
IC50: 100 to 500 nM

SMILES: NCCNC(=O)N1CCC(c2cn(-c3ccc(Cl)cc3)c3cnccc23)CC1 [Example 5, N-(2-Aminoethyl)-4-[1-(4-chlorophenyl)-1H-pyrrolo[2,3-c]pyridin-3-yl]piperidine-1-carboxamide]
IC50: < 100 nM

SMILES: NCCCOC(=O)N1CCC(c2cn(-c3ccc(Cl)cc3)c3cnccc23)CC1 [Example 2, 3-Aminopropyl 4-[1-(4-chlorophenyl)-1H-pyrrolo[2,3-c]pyridin-3-yl]piperidine-1-carboxylate]
IC50: < 100 nM

SMILES: CN(C)CCCC(=O)N1CCC(c2cn(-c3ccc(Cl)cc3)c3cnccc23)CC1 [Example 3, 1-{4-[1-(4-Chlorophenyl)-1H-pyrrolo[2,3-c]pyridin-3-yl]piperidin-1-yl}-4-(dimethylamino)butan-1-one; 2,2,2-trifluoroacetic acid]
IC50: < 100 nM

SMILES: CN(C)CCCNC(=O)N1CCC(c2cn(-c3ccc(Cl)cc3)c3cnccc23)CC1 [Example 7, 4-[1-(4-Chlorophenyl)-1H-pyrrolo[2,3-c]pyridin-3-yl]-N-[3-(dimethylamino)propyl]piperidine-1-carboxamide]
IC50: < 100 nM

SMILES: NCCCCC(=O)N1CCC(c2cn(-c3ccc(Cl)cc3)c3cnccc23)CC1 [Example 4, 5-Amino-1-{4-[1-(4-chlorophenyl)-1H-pyrrolo[2,3-c]pyridin-3-yl]piperidin-1-yl}pentan-1-one]
IC50: < 100 nM

Continued, values first:

IC50: 100 to 500 nM
SMILES: Cc1ccc(-n2cc(N3CCOCC3)c3ccncc32)cc1 [Example 26, 4-[1-(4-Methylphenyl)-1H-pyrrolo[2,3-c]pyridin-3-yl]morpholine]

IC50: 100 to 500 nM
SMILES: COC(=O)C1COCCN1c1nn(-c2ccc(Cl)cc2)c2cnccc12 (stereo not drawn) [Example 20, Methyl 4-[1-(4-chlorophenyl)-1H-pyrazolo[3,4-c]pyridin-3-yl]morpholine-3-carboxylate]

IC50: < 100 nM
SMILES: NCCNC(=O)C1CCCCN1c1nn(-c2ccc(Cl)cc2)c2cnccc12 (stereo not drawn) [Example 24, N-(2-Aminoethyl)-1-[1-(4-chlorophenyl)-1H-pyrazolo[3,4-c]pyridin-3-yl]piperidine-2-carboxamide dihydrochloride]

IC50: < 100 nM
SMILES: Cc1ccc(-n2nc(N3CCOCC3CO)c3ccncc32)cc1 (stereo not drawn) [Example 17, {4-[1-(4-Methylphenyl)-1H-pyrazolo[3,4-c]pyridin-3-yl]morpholin-3-yl}methanol]

IC50: 100 to 500 nM
SMILES: FCc1ccc(-n2nc(C3CCOCC3)c3ccncc32)cc1 [Example 29, 1-[4-(Fluoromethyl)phenyl]-3-(oxan-4-yl)-1H-pyrazolo[3,4-c]pyridine]

IC50: 500 to 2500 nM
SMILES: CCCCN(C)c1nn(-c2ccc(Cl)cc2)c2cnccc12 [Example 28, N-Butyl-1-(4-chlorophenyl)-N-methyl-1H-pyrazolo[3,4-c]pyridin-3-amine]

IC50: < 100 nM
SMILES: OC[C@@H]1COCCN1c1nn(-c2ccc(Cl)cc2)c2cnccc12 [Example 19, [(3R)-4-[1-(4-Chlorophenyl)-1H-pyrazolo[3,4-c]pyridin-3-yl]morpholin-3-yl]methanol]

IC50: < 100 nM
SMILES: Cc1ccc(-n2nc(N3CCOC(CO)C3)c3ccncc32)cc1 (stereo not drawn) [Example 18, {4-[1-(4-Methylphenyl)-1H-pyrazolo[3,4-c]pyridin-3-yl]morpholin-2-yl}methanol]

IC50: < 100 nM
SMILES: NCCNC(=O)C1COCCN1c1nn(-c2ccc(Cl)cc2)c2cnccc12 (stereo not drawn) [Example 21, N-(2-Aminoethyl)-4-[1-(4-chlorophenyl)-1H-pyrazolo[3,4-c]pyridin-3-yl]morpholine-3-carboxamide]

IC50: 100 to 500 nM
SMILES: O=C(C1CCN(c2nn(-c3ccc(Cl)cc3)c3cnccc23)CC1)N1CCNCC1 [Example 16, 1-({1-[1-(4-Chlorophenyl)-1H-pyrazolo[3,4-c]pyridin-3-yl]piperidin-4-yl}carbonyl)piperazine dihydrochloride]

IC50: < 100 nM
SMILES: O=C(C1CCCCN1c1nn(-c2ccc(Cl)cc2)c2cnccc12)N1CCNCC1 (stereo not drawn) [Example 25, 1-({1-[1-(4-Chlorophenyl)-1H-pyrazolo[3,4-c]pyridin-3-yl]piperidin-2-yl}carbonyl) piperazine]

IC50: < 100 nM
SMILES: OCCC1COCCN1c1nn(-c2ccc(Cl)cc2)c2cnccc12 (stereo not drawn) [Example 22, 2-{4-[1-(4-Chlorophenyl)-1H-pyrazolo[3,4-c]pyridin-3-yl]morpholin-3-yl}ethan-1-ol]

IC50: 500 to 2500 nM
SMILES: COC(=O)C1CCCCN1c1nn(-c2ccc(Cl)cc2)c2cnccc12 (stereo not drawn) [Example 23, Methyl 1-[1-(4-chlorophenyl)-1H-pyrazolo[3,4-c]pyridin-3-yl]piperidine-2-carboxylate]
